This is an account of results in ChEMBL document CHEMBL3232950, “Quinolone-benzylpiperidine derivatives as novel acetylcholinesterase inhibitor and antioxidant hybrids for Alzheimer disease” (Bioorg Med Chem, 2014).

The subject of experiment [1] is Radical scavenging activity.
Description: Antioxidant activity assessed as DPPH radical scavenging activity after 2 hrs by absorbance analysis
Experiment [2] concerns the target Acetylcholinesterase (Homo sapiens, UniProt P22303). In words: Inhibition of AChE in human erythrocytes using acetylthiocholine iodide as substrate preincubated with enzyme for 10 mins prior to substrate challenge measured after 15 mins by Ellman's method. The experiment is classed as cell-based.
In experiment [3] the target is Cholinesterase (Equus caballus, UniProt P81908).
Description: Inhibition of BuChE in equine serum using butyrylthiocholine iodide as substrate preincubated with enzyme for 10 mins prior to substrate challenge measured after 15 mins by Ellman's method
The target in experiment [4] is Acetylcholinesterase (Electrophorus electricus, UniProt O42275).
Description: Inhibition of electric eel AChE using acetylthiocholine iodide as substrate preincubated with enzyme for 10 mins prior to substrate challenge measured after 15 mins by Ellman's method
Experiment [5] is described as follows: Antioxidant activity assessed as superoxide anion radical scavenging activity at 100 uM by non-enzymatic phenazine methosulfate NADH-system. The experiment is classed as functional.

In general, EC50 refers to the concentration at which the effect is half-maximal. A low value points to an effect from little substance. The term IC50 denotes the midpoint of a concentration-inhibition curve. The low end stands for greater potency in that assay, the high end for weaker potency in that assay.

Some results are limits rather than exact numbers.

Acetylcholinesterase (Electrophorus electricus, UniProt O42275), sequence (O42275 whole entry): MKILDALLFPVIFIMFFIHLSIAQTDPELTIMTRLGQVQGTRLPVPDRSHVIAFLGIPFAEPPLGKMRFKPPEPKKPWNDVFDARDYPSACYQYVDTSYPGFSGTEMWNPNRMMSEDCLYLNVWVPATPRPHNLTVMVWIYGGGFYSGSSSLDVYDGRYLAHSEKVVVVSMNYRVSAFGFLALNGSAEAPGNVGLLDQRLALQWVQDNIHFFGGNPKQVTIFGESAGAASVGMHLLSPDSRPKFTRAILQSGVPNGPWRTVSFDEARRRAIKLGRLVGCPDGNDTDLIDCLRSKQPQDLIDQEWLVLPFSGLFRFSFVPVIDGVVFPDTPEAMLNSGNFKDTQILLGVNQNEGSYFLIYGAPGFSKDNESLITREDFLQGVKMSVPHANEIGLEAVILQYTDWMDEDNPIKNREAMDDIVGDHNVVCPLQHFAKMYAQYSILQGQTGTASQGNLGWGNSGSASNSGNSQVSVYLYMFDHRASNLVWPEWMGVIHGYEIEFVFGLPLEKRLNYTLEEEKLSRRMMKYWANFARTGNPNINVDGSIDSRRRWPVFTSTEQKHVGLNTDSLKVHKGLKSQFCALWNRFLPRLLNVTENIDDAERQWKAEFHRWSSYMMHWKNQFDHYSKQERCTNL
Cholinesterase, sequence (P81908 whole entry): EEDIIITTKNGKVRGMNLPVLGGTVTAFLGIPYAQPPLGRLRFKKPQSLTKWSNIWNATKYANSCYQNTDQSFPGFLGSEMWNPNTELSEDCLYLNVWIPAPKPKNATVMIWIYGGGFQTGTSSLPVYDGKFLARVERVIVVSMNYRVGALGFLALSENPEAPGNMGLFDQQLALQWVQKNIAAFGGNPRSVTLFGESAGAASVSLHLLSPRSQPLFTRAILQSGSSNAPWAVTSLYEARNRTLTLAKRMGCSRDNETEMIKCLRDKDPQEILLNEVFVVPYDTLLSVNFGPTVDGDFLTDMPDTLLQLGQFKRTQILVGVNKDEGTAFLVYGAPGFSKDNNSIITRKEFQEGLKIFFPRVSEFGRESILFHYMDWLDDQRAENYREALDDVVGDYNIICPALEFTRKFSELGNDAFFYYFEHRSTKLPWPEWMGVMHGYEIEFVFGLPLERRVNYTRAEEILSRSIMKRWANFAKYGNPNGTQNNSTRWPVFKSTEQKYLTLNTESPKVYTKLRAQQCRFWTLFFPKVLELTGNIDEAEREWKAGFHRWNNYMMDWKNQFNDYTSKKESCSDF
Acetylcholinesterase (Homo sapiens, UniProt P22303), sequence (P22303 whole entry): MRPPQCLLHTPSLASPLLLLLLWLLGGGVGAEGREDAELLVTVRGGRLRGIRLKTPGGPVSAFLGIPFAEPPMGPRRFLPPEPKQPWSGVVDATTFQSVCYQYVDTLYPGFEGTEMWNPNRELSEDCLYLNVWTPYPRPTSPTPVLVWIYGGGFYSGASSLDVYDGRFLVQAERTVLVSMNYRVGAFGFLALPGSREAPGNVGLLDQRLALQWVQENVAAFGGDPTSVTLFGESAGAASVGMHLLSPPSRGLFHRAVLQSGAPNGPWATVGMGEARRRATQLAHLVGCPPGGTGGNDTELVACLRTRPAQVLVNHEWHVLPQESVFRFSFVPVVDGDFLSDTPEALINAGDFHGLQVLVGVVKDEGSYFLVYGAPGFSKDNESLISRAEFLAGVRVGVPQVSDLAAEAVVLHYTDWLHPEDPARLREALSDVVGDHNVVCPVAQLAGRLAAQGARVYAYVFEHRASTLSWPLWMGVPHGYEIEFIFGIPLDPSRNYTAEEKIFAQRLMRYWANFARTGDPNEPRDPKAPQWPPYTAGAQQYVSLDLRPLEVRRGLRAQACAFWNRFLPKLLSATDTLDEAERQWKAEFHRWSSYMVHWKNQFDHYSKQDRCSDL

With `O=C(NCC1CCN(Cc2ccccc2)CC1)c1c(O)c2cc(O)c(O)cc2[nH]c1=O`, in experiment [1], the EC50 stood at 12.2 µM. The half-maximal inhibitory concentration (IC50) in experiment [2] is 980 nM; in experiment [3], greater than 10 µM; in experiment [4], 480 nM.

Compound `O=C(NCC1CCN(Cc2ccccc2)CC1)c1c(O)c2ccccc2n(Cc2cc(O)c(O)c(O)c2)c1=O` showed a 50% effective concentration (EC50) in experiment [1] of 107 µM. In addition, the IC50 in experiment [3] was greater than 10 µM; in experiment [4], 3890 nM.

Regarding `COc1cc(/C=C/C(=O)CC(=O)/C=C/c2ccc(O)c(OC)c2)ccc1O` [CURCUMIN], in experiment [1], the EC50 amounted to 26.6 µM.

Turning to `O=C(NCC1CCN(Cc2ccccc2)CC1)c1c(O)c2ccccc2[nH]c1=O`, the concentration for half-maximal inhibition (IC50) in experiment [3] came out at 6.02 µM; in experiment [4], 1410 nM.

For the compound `Cn1c(=O)c(C(=O)NC2CCN(Cc3ccccc3)CC2)c(O)c2ccccc21`, the results for the half-inhibitory concentration (IC50) in experiment [3] and in experiment [4] were greater than 10 µM and 1520 nM, respectively.

On to `COc1cc2c(O)c(C(=O)NCC3CCN(Cc4ccccc4)CC3)c(=O)n(Cc3ccccc3)c2cc1OC`, for which the 50% inhibitory concentration (IC50) is greater than 60 µM in experiment [3] and 270 nM in experiment [4].

As to `Cc1c(C(=O)NCC2CCN(Cc3ccccc3)CC2)c(=O)[nH]c2ccccc12`, the half-inhibitory concentration (IC50) is greater than 10 µM in experiment [3] and 470 nM in experiment [4].

With `O=C(NC1CCN(Cc2ccccc2)CC1)c1c(O)c2ccccc2[nH]c1=O`, the half-inhibitory concentration (IC50) in experiment [3] is greater than 10 µM; in experiment [4], 2270 nM.

Regarding `Cn1c(=O)c(C(=O)NCC2CCN(Cc3ccccc3)CC2)c(O)c2ccccc21`, the figures for the IC50 in experiment [3] and in experiment [4] were 4.26 µM and 370 nM, respectively.

Take `O=C(NC1CCN(Cc2ccccc2)CC1)c1c(-c2ccccc2)c2ccccc2[nH]c1=O`: the IC50 was greater than 10 µM in experiment [3] and greater than 10000 nM in experiment [4].

Consider `O=c1c(O)c(-c2ccc(O)c(O)c2)oc2cc(O)cc(O)c12` [QUERCETIN], for which the half-maximal effective concentration (EC50) in experiment [1] came to 10.3 µM.

As to `Cn1c(=O)c(C(=O)NCC2CCN(Cc3ccccc3)CC2)c(O)c2cc(O)c(O)cc21`, in experiment [1], the EC50 is 21.7 µM. Besides, the figures for the IC50 in experiment [3] and in experiment [4] were greater than 10 µM and 2020 nM, respectively. Besides, in experiment [5], the Activity turned out to be 40%.

For `Cc1c(C(=O)NC2CCN(Cc3ccccc3)CC2)c(=O)[nH]c2ccccc12`, the IC50 is greater than 10 µM in experiment [3] and 2460 nM in experiment [4].

The compound `O=C(NCC1CCN(Cc2ccccc2)CC1)c1c(O)c2cc(O)c(O)cc2n(Cc2ccccc2)c1=O` came in with an EC50 in experiment [1] of 20.8 µM. For the same compound, the IC50 in experiment [3] is greater than 10 µM; in experiment [4] it was greater than 10000 nM.

With `Cn1c(=O)c(C(=O)NCC2CCN(Cc3ccccc3)CC2)c(N)c2ccccc21`, the IC50 amounted to 1.14 µM in experiment [3] and 380 nM in experiment [4].

As to `COc1cc2c(O)c(C(=O)NCC3CCN(Cc4ccccc4)CC3)c(=O)n(C)c2cc1OC`, the 50% inhibitory concentration (IC50) in experiment [3] is greater than 10 µM; in experiment [4], 2930 nM.

Consider `O=C(NC1CCN(Cc2ccccc2)CC1)c1c(O)c2ccccc2n(Cc2ccccc2)c1=O`, for which the IC50 is greater than 10 µM in experiment [3] and 390 nM in experiment [4].

In experiment [1], `COc1cc(Cn2c(=O)c(C(=O)NCC3CCN(Cc4ccccc4)CC3)c(O)c3ccccc32)cc(OC)c1O` displayed an EC50 of 90.5 µM. In addition, the IC50 in experiment [3] came out at 0.33 µM; in experiment [4], 560 nM. The Activity in experiment [5] came to 33%.

For the compound `COc1cc2[nH]c(=O)c(C(=O)NCC3CCN(Cc4ccccc4)CC3)c(O)c2cc1OC`, the values for the concentration for half-maximal inhibition (IC50) in experiment [2], in experiment [3] and in experiment [4] were 230 nM, greater than 60 µM and 110 nM, respectively.

Consider `O=C(NCC1CCN(Cc2ccccc2)CC1)c1c(O)c2ccccc2n(Cc2ccccc2)c1=O`, for which the IC50 in experiment [3] was greater than 10 µM; in experiment [4], 490 nM.
